Molecules are shown by their SMILES.

Here are results for 20 compounds from patent US6117841A, “Substituted peptidylamine calcium channel blockers” (Warner-Lambert Company, priority 1999, dated 2000).

For one experiment, the target named is T1, N-type Ca^2+ Channel (Homo sapiens, UniProt Q00975).
T1 construct: host or cells: IMR-32 cells differentiated with dibutyryl cAMP and bromodeoxyuridine
T1 sequence (Q00975 whole entry): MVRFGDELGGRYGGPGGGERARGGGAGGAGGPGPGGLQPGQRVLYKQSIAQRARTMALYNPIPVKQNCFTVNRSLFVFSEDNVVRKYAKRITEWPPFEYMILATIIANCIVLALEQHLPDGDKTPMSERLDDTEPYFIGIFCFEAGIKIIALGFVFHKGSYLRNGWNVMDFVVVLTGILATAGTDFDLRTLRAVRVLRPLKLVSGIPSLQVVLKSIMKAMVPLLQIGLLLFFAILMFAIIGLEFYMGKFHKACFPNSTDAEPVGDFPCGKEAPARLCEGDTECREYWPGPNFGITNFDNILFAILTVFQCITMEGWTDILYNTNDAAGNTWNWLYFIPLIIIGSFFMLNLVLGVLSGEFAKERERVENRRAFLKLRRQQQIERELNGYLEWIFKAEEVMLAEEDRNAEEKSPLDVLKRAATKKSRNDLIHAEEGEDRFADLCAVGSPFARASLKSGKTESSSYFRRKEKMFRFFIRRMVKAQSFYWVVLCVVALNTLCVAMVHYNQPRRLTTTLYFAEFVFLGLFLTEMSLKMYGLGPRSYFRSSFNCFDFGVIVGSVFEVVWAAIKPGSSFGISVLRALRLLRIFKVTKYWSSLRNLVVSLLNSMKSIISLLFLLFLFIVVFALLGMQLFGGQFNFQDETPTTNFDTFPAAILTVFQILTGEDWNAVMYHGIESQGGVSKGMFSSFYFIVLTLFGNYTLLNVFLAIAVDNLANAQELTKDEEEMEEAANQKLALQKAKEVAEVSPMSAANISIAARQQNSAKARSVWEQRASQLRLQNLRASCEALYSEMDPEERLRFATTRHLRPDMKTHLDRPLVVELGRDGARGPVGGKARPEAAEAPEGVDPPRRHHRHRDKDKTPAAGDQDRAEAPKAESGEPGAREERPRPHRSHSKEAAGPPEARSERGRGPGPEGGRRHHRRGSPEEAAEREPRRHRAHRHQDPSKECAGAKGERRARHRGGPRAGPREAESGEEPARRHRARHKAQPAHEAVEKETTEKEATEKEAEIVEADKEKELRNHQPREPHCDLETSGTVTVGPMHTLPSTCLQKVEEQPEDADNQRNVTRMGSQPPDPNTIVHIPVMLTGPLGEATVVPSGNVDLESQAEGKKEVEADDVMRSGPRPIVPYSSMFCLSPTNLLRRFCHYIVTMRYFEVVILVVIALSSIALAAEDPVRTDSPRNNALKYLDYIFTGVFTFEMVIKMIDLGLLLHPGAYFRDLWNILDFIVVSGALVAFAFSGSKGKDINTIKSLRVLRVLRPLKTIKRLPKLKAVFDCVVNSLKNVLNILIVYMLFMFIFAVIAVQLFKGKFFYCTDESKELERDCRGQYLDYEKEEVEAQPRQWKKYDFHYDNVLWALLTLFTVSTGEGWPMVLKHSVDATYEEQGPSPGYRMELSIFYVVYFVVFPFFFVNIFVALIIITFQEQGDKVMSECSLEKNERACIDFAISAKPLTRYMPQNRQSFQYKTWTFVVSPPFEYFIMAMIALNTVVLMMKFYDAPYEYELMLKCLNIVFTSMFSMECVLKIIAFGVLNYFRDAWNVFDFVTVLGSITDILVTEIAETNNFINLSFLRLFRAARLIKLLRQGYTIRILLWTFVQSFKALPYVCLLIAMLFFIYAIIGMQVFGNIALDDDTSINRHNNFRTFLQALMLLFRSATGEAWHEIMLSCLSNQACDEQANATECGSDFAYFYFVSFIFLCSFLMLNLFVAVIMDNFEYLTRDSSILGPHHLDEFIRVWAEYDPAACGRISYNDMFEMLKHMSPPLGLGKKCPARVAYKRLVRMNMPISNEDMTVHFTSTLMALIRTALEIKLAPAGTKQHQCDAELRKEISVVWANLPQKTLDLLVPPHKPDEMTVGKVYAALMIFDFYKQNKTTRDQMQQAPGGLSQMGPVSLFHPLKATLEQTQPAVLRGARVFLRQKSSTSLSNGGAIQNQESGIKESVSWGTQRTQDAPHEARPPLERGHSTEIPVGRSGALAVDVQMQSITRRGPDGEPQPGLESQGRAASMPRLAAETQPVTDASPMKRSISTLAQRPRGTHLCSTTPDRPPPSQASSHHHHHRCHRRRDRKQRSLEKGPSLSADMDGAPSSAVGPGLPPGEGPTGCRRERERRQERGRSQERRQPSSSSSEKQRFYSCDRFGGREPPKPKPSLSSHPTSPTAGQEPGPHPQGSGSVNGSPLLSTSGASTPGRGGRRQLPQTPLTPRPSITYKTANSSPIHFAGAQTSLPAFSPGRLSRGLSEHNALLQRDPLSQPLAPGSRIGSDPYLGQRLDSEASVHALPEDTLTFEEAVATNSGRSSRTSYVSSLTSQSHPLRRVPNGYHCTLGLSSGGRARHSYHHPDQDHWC
T1 sequence (P54284 whole entry partner): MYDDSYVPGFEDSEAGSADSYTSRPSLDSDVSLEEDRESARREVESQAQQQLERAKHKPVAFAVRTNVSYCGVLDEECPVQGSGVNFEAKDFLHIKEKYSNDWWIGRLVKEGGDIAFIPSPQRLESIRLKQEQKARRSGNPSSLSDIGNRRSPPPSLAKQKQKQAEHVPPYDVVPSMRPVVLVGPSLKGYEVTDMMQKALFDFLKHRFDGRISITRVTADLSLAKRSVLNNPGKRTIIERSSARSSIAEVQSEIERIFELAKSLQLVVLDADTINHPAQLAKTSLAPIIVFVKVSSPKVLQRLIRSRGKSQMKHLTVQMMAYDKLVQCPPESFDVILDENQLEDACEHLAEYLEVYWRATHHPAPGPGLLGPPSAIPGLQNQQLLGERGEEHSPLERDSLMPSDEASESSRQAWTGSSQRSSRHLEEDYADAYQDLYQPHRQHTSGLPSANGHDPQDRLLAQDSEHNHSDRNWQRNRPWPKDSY
T1 sequence (P54289 25-946 partner limits assumed): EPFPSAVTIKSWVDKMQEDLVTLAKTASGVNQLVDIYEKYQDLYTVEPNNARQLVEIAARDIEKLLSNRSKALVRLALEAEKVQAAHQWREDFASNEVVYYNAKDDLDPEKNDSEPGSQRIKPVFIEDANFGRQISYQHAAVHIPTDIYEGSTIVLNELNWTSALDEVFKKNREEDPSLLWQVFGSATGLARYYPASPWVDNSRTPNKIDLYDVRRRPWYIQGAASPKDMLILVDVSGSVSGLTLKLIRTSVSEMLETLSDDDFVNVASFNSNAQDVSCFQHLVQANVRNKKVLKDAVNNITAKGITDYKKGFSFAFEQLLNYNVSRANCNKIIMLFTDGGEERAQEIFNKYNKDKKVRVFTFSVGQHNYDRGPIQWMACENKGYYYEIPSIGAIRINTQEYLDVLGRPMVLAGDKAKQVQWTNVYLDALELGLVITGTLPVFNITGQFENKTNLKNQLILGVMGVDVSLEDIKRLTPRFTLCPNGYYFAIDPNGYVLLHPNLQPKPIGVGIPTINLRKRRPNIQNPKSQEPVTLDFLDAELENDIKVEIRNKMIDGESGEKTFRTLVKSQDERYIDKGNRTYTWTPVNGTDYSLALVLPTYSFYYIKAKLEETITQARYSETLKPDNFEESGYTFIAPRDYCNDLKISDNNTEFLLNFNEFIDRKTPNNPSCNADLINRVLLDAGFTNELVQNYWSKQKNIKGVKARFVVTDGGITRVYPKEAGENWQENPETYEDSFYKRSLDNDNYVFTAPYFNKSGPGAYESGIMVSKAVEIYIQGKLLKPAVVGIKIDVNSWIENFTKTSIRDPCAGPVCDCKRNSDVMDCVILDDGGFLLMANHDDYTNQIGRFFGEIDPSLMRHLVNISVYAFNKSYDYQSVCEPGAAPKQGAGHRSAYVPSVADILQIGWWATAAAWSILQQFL
T1 sequence (P54289 947-1103 partner limits assumed): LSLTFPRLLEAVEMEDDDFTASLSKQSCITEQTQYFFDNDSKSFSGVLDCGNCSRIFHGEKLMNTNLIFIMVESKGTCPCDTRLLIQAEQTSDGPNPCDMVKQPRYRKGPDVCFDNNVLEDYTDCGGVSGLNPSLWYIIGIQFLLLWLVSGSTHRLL
The experiment can be described thus: Measurement of N-type Ca2+ channel blocking potencies in IMR-32 cells using the fluorescent Ca2+ indicator Indo-1. It counts as cell-based. The conditions noted are these: 0.3 μM; IMR-32 cells, 5 μM nitrendipine. As for the experimental part: Measurement of N-type Ca^2+ Channel Blocking Potencies of Compounds in IMR-32 Cells Using the Fluorescent Ca^2 + Indicator Indo-1
IMR-32 cells are a human tumoral cell line of neural origin. […] Calcium flux into these cells may be induced by stimulation with elevated potassium concentrations. The L-channel component of calcium flux may be blocked by adding 5 μM nitrendipine. The remaining component of calcium entry into the IMR-32 cells is due to calcium flux through N-type calcium channels. Intracellular calcium concentrations are measured using the fluorescent calcium indicator Indo-1. The effect of drug concentration on calcium uptake is studied.
The IMR-32 cell line was obtained from the American Type Culture Collection (Rockville, Md.). Cells were grown in Eagle's Minimum Essential Medium with Earle's salts supplemented with 10% fetal bovine serum, 2 mM L-Gln and antibiotic/antimycotic mixture (Gibco). At approximately 80% confluency, differentiation was induced by the addition of 1 mM dibutyryl cAMP and 2.5 μM bromodeoxyuridine to the medium. After 7 to 13 days of differentiation, cells were detached using 0.5 mM EDTA and loaded with 5 μM Indo-1 acetoxymethyl ester (Molecular Probes, Eugene, Oreg.) at 30° C. for 45 minutes. Loaded cells were washed twice, resuspended (~10^7 cells/mL) in assay buffer (10 mM HEPES/Tris pH 7.4 in Hank's Balanced Salt Solution without bicarbonate or phenol red containing 0.5% bovine serum albumin) and kept on ice until use. Fluorescence measurements were carried out in a Photon Technology International (PTI, South Brunswick, N.J.) Model RF-F3004 spectrofluorometer with dual emission monochromators using excitation at 350 nm and emission at 400 and 490 nm. The instrument was equipped with a thermostated cuvette holder with stirring capabilities as well as with a computer-controlled pump which allowed for reagent addition during measurement. Instrument control and data collection was done by PTI's OSCAR software running on an IBM compatible computer. Different concentrations of the test compounds (60 μL in dimethyl sulfoxide) were added to 5.94 mL of assay buffer containing approximately 3×10^6 loaded cells, and 5 μM nitrendipine (in 30 μL EtOH) to block L-type Ca^2+ channels. Samples were incubated for 10 minutes at 30° C. and then aliquoted into three 10×10 mm disposable acrylic cuvettes. Emission signals at 400 and 490 nm were acquired from each cuvette at 30° C. for 50 seconds. At 20 seconds after the start of reading, cells were depolarized by the addition of 160 μL of stimulation solution (1 M KCl, 68 mM CaCl2) to the cuvette via the computer-controlled pump. Ratio of dual emission signals (400 nm/ 490 nm), which is proportional to intracellular Ca^2+ concentration, was plotted against time, and the difference between maximal response after stimulation and basal value (before stimulation) was determined. Values obtained in this way were plotted as a function of drug concentration. IC50 values of test compounds were calculated by fitting a four-parameter logistic function to the data using the least squares method.
As for `CCN(CCC(C)C)C(CC(C)C)C(=O)NC(Cc1ccc(OCc2ccccc2)cc1)C(=O)NC(C)(C)C` (stereo not drawn) [Example 45, [S-(R*,R*)]-4Methyl-2-[ethyl-(3-methyl-butyl)-amino]-pentanoic acid [2-(4-benzyloxy-phenyl)-1-tert-butylcarbamoyl-ethyl]-amide], the “IMR 32 % of Blockade @ 0.3 μM” value worked out at 45%.

Staying with this experiment, now noted: 1 μM; IMR-32 cells, 5 μM nitrendipine.
`CC(C)C[C@@H](C(=O)N[C@@H](Cc1ccc(OCc2ccccc2)cc1)C(=O)N1CCN(C)CC1)N(C)C1CCCCC1` (relative stereo) [Example 24, [S-(R*,R*)]-2-(Cyclohexyl-methyl-amino)4-methyl-pentanoic acid [1-(4-benzyloxy-benzyl)-2-(4-methyl-piperazin-1-yl)-2-oxo-ethyl]-amide]: the “IMR 32 % of Blockade @ 1 μM” value amounted to 32%.

In the case of `CC(C)C[C@@H](C(=O)N[C@@H](Cc1ccc(OCc2ccccc2)cc1)C(=O)N1CCCCC1)N(C)Cc1ccc(C(C)(C)C)cc1` (relative stereo) [Example 14, [S-(R*,R*)]-2-[(4-tert-Butyl-benzyl)-methyl-amino]-4-methyl-pentanoic acid [2-(4-benzyloxy-phenyl)-1-(piperidine-1-carbonyl)-ethyl]-amide], the “IMR 32 % of Blockade @ 1 μM” value was determined as 80%.

Still in this experiment, the particulars now being: 3 μM; IMR-32 cells, 5 μM nitrendipine.
Take `CCN(CCC(C)C)C(CC(C)C)C(=O)NC(Cc1ccc(OCc2ccccc2)cc1)C(=O)NC(C)(C)C` (stereo not drawn) [Example 45, [S-(R*,R*)]-4Methyl-2-[ethyl-(3-methyl-butyl)-amino]-pentanoic acid [2-(4-benzyloxy-phenyl)-1-tert-butylcarbamoyl-ethyl]-amide]: the “IMR 32 % of Blockade @ 3 μM” value stood at 77%.

The experiment is the same for the next values; noted with them: 10 μM; IMR-32 cells, 5 μM nitrendipine.
Turning to `CC(C)C[C@@H](C(=O)N[C@@H](Cc1ccc(OCc2ccccc2)cc1)C(=O)N1CCN(C)CC1)N(C)C1CCCCC1` (relative stereo) [Example 24, [S-(R*,R*)]-2-(Cyclohexyl-methyl-amino)4-methyl-pentanoic acid [1-(4-benzyloxy-benzyl)-2-(4-methyl-piperazin-1-yl)-2-oxo-ethyl]-amide], the “IMR 32 % of Blockade @ 10 μM” value is recorded as 84%. On the same count and under the same terms, under `CC(C)C[C@@H](C(=O)N[C@@H](Cc1ccc(OCc2ccccc2)cc1)C(=O)N1CCCCC1)N(C)Cc1ccc(C(C)(C)C)cc1` (relative stereo) [Example 14, [S-(R*,R*)]-2-[(4-tert-Butyl-benzyl)-methyl-amino]-4-methyl-pentanoic acid [2-(4-benzyloxy-phenyl)-1-(piperidine-1-carbonyl)-ethyl]-amide] stands 85%.

The experiment is the same for the next values; noted with them: IMR-32 cells, 5 μM nitrendipine; Examples 116-140; read-out: IMR 32% of Blockade @.
For `CC(C)CC(C(=O)NC(Cc1ccc(OCc2ccccc2)cc1)C(=O)NCCN1CCOCC1)N1CCOCC1` (stereo not drawn) [Example 119, [S-(R*,R*)]-4-Methyl-2-morpholin-4-yl-pentanoic acid [2-(4-benzyloxy-phenyl)-1-(2-morpholin-4-yl-ethylcarbamoyl)-ethyl]-amide], the IC50 is 18000 nM.

As to `CC(C)C[C@@H](C(=O)N[C@@H](Cc1ccc(OCc2ccccc2)cc1)C(=O)NCCCn1ccnc1)N(C)C` (relative stereo) [Example 134, [S-(R*,R*)]-2-Dimethylamino-4-methyl-pentanoic acid [2-(4-benzyloxy-phenyl)-1-(3-imidazol-1-yl-propylcarbamoyl)-ethyl]-amide], the IC50 is 1600 nM. The same measure, in the same setting: under `CC(C)CC(C(=O)NC(Cc1ccc(OCc2ccccc2)cc1)C(=O)NCCCn1ccnc1)N1CCOCC1` (stereo not drawn) [Example 121, [S-(R*,R*)]-4-Methyl-2-morpholin-4-yl-pentanoic acid [2-(4-benzyloxy-phenyl)-1-(3-imidazol-1-yl-propylcarbamoyl)-ethyl]-amide] stands 14000 nM.

For `CCC(CO)(CO)NC(=O)[C@H](Cc1ccc(OCc2ccccc2)cc1)NC(=O)[C@H](CC(C)C)N1CCOCC1` (relative stereo) [Example 124, [S-(R*,R*)]-4-Methyl-2-morpholin-4-yl-pentanoic acid [2-(4-benzyloxy-phenyl)-1-(1,1-bis-hydroxymethyl-propyl-carbamoyl)-ethyl]-amide], the IC50 worked out at 7200 nM.

In the case of `CC(C)C[C@@H](C(=O)N[C@@H](Cc1ccc(OCc2ccccc2)cc1)C(=O)NCCN1CCOCC1)N(C)C` (relative stereo) [Example 132, [S-(R*,R*)]-2-Dimethylamino-4-methyl-pentanoic acid [2-(4-benzyloxy-phenyl)-1-(2-morpholin-4-yl-ethylcarbamoyl)-ethyl]-amide], the IC50 was found to be 12000 nM.

Still in this experiment, the particulars now being: IMR-32 cells, K+ depolarization, 5 μM nitrendipine to block L-type channels; read-out: IMR 32 IC50.
In the case of `CC(C)C[C@H](NC1CCOCC1)C(=O)N[C@@H](Cc1ccc(OCc2ccccc2)cc1)C(=O)N1CCCCC1` (relative stereo) [Example 79, [S-(R*,R*)]-4-Methyl-2-(tetrahydro-pyran-4-ylamino)-pentanoic acid [1-(4-benzyloxy-benzyl)-2-oxo-2-piperidin-1-yl-ethyl]-amide], the IC50 came out at 2100 nM. Regarding `CC(C)C[C@@H](C(=O)N[C@@H](Cc1ccc(OCc2ccccc2)cc1)C(=O)N1CCCCC1)N(C)CC1CCCCC1` (relative stereo) [Example 26, [S-(R*,R*)]-2-(Cyclohexylmethyl-methyl-amino)-4-methyl-pentanoic acid [^2-(^4-benzyloxy-phenyl)-1-(piperidine-1-carbonyl)-ethyl]-amide], the IC50 worked out at 600 nM. Consider `COc1ccc(CN(C)[C@@H](CC(C)C)C(=O)N[C@@H](Cc2ccc(OCc3ccccc3)cc2)C(=O)NC(C)(C)C)cc1` (relative stereo) [Example 98, [S-(R*,R*)]-2-[(4-Methoxy-benzyl)-methyl-amino]-4-methyl-pentanoic acid [2-(4-benzyloxy-phenyl)-1-tert-butylcarbamoyl-ethyl]-amide], for which the IC50 was 400 nM.

Turning to `CCOC(=O)CN(C)[C@@H](CC(C)C)C(=O)N[C@@H](Cc1ccc(OCc2ccccc2)cc1)C(=O)NC(C)(C)C` (relative stereo) [Example 96, [S-(R*,R*)]-({1-[2-(4-Benzyloxy-phenyl)-1-tert-butylcarbamoyl-ethylcarbamoyl]-3-methyl-butyl}-methyl-amino)-acetic acid ethyl ester], the IC50 turned out to be 4400 nM. Still for that read-out and setting: to `CC(C)CC(NC1CCOCC1)C(=O)NC(Cc1ccc(OCc2ccccc2)cc1)C(=O)OC(C)(C)C` (stereo not drawn) [Example 85, [S-(R*,R*)]-3-(4-Benzyloxy-phenyl)-2-[4-methyl-2-(tetrahydro-pyran-4-ylamino)-pentanoylamino]-propionic acid tert-butyl ester] belongs 320 nM; to `CC(C)CCN[C@@H](CC(C)C)C(=O)N[C@@H](Cc1ccc(OCc2ccccc2)cc1)C(=O)NC(C)(C)C` (relative stereo) [Example 105, [S-(R*,R*)]-4-Methyl-2-(3-methyl-butylamino)-pentanoic acid [2-(4-benzyloxy-phenyl)-1-tert-butylcarbamoyl-ethyl]-amide], 240 nM.

In the case of `CC(C)C[C@H](NC1CCOCC1)C(=O)N[C@@H](Cc1ccc(OCc2ccccc2)cc1)C(=O)NCCN1CCCCC1` (relative stereo) [Example 77, [S-(R*,R*)]-4-Methyl-2-(tetrahydro-pyran-4-ylamino)-pentanoic acid [2-(4-benzyloxy-phenyl)-1-(2-piperidin-1-yl-ethylcarbamoyl)-ethyl]-amide], the IC50 was 2600 nM. `CCC(COC)NC(=O)[C@H](Cc1ccc(OCc2ccccc2)cc1)NC(=O)[C@H](CC(C)C)NC1CCOCC1` (relative stereo) [Example 75, [S-(R*,R*)]-4-Methyl-2-(tetrahydro-pyran-4-ylamino)-pentanoic acid [2-(4-benzyloxy-phenyl)-1-(1-methoxymethyl-propylcarbamoyl)-ethyl]-amide]: the IC50 was 2400 nM. Same read-out and setting: to `CC(C)C[C@H](NC1CCOCC1)C(=O)N[C@@H](Cc1ccc(OCc2ccccc2)cc1)C(=O)N1CCSCC1` (relative stereo) [Example 72, [S-(R*,R*)]-4-Methyl-2-(tetrahydro-pyran-4-ylamino)-pentanoic acid [1-(4-benzyloxy-benzyl)-2-oxo-2-thiomorpholin-4-yl-ethyl]-amide] belongs 1200 nM; to `CCN[C@@H](CC(C)C)C(=O)N[C@@H](Cc1ccc(OCc2ccccc2)cc1)C(=O)NC(C)(C)C` (relative stereo) [Example 100, [S-(R*,R*)]-2-Ethylamino-4-methyl-pentanoic acid [2-(4-benzyloxy-phenyl)-1-tert-butylcarbamoyl-ethyl]-amide], 2000 nM; to `CC(C)=CCN(C)[C@@H](CC(C)C)C(=O)N[C@@H](Cc1ccc(OCc2ccccc2)cc1)C(=O)NC(C)(C)C` (relative stereo) [Example 51, [S-(R*,R*)]4-Methyl-2-[methyl-(3-methyl-but-2-enyl)-amino]-pentanoic acid [2-(4-benzyloxy-phenyl)-1-tert-butylcarbamoyl-ethyl]-amide], 1300 nM.

The same experiment, now with this note: read-out: IMR 32 IC50.
For the compound `CCN(CC)C(CC(C)C)C(=O)N[C@@H](Cc1ccc(OCc2ccccc2)cc1)C(=O)NC(C)(C)C` (stereo in doubt) [Example 37, [S-(R*,R*/S*)]-2-Diethylamino-4-methyl-pentanoic acid[2-(4-benzyloxy-phenyl)-1-tert-butylcarbamoyl-ethyl]-amide], the IC50 was 1000 nM.
